From patent US6444677B2, “5-membered heteroaryl substituted 1,4-dihydropyridine compounds as bradykinin antagonists” (Pfizer Inc., priority 1999, dated 2002)

melting point	Compound
154 to 157 °C	CCNCC(C)(C)CN1CCN(C(=O)CC2=C(C(=O)OC)C(c3c(Cl)cccc3Cl)C(C(=O)OC)=C(CCc3nccs3)N2)CC1 (stereo not drawn) [Example 19, Dimethyl 4-(2,6-dichlorophenyl)-2-[2-[4-[3-(ethylamino)-2,2-dimethylpropyl]-1-piperazinyl]-2-oxoethyl]-6-[2-(1,3-thiazol-2-yl)ethyl]-1,4-dihydro-3,5-pyridinedicarboxylate]
175 to 178 °C (dec.)	COC(=O)C1=C(CCc2nccs2)NC(CC(=O)N2CCN(CCCN3CCC(C)C3=O)CC2)=C(C(=O)OC)C1c1c(Cl)cccc1Cl (stereo not drawn) [Example 30, Dimethyl 4-(2,6-dichlorophenyl)-2-[2-[4-[3-(3-methyl-2-oxo-1-pyrrolidinyl)propyl]-1-piperazinyl]-2-oxoethyl]-6-[2-(1,3-thiazol-2-yl)ethyl]-1,4-dihydro-3,5pyridinedicarboxylate]
114 to 116 °C (dec.)	COC(=O)C1=C(CCc2nccs2)NC(CC(=O)N2CCC(C3(CNC(C)=O)CCCCC3)CC2)=C(C(=O)OC)C1c1c(Cl)cccc1Cl (stereo not drawn) [Example 44, Dimethyl 2-[2-[4-[1-[(acetylamino)methyl]cyclohexyl]-1-piperidinyl]-2-oxoethyl]-4-(2,6dichlorophenyl)-6-[2-(1,3-thiazol-2-yl)ethyl]-1,4dihydro-3,5-pyridinedicarboxylate]
